For one assay, the system named is acetylated tubulin. The assay can be described thus: Western blot of acetylated tubulin in MM1S cells. The assay is classed as cell-based, human. The conditions noted are these: 100 nM. From the text: (§1) FIGS. 12A, 12B, and 12C are a series of western blots showing that degrader 12d selectively promotes HDAC6 degradation in MM1S cells.
(§2) To further examine the selectivity of the new generation of HDAC6 degraders, compound 12d was compared to SAHA, Next-A, degrader 1 and pan-inhibitor 2 for change of acetylated a-tubulin and acetylated histone H3.
(§3) When the cells reached 90% confluence, they were harvested and plated 1×10^6 cells per well in 6-well plate. After overnight seeding, the cells were treated with a solution of compounds or vehicle in culture medium. The culture medium was removed after treatment and then washed twice with cold PBS. To obtain whole cell lysate, all cells were treated with RIPA lysis buffer (25 mM Tris, pH 7-8, 150 mM NaCl, 0.1% SDS, 0.5% sodium deoxycholate, 1% Triton X-100, protease inhibitor cocktail (Roche, 1 tablet per 10 mL) and 1 mM PMSF) on ice for 10 minutes. Supernatant was collected after spinning down at 16,000 g at 4° C. for 15 minutes. Protein concentration was measured by using the Pierce BCA protein assay (Thermo Fisher Scientific). About 10-40 μg of total protein was mixed with 4× Laemmli Loading Dye (250 mM Tris, pH 6.8, 40% glycerol, 5% SDS, 0.005% bromophenol blue, 4% BME) and heated at 95-100° C. for 5 minutes. The heated sample was then subjected to 7.5-12% SDS-PAGE and transferred to PVDF membrane (Bio-Rad,). The membrane was blocked in 5% non-fat milk (Bio-rad) in TBS-T washing buffer (137 mM NaCl, 20 mM Tris, 0.1% Tween) and then incubated with primary antibodies at 4° C. overnight. […] The Immunoblot was generated by ChemiDoc MP Imaging Systems (Bio-Rad) and analyzed by Image J software (only available for download online at https://imagej.net/Downloads). […]
The activity of all eleven “n+4” VHL-based potential degraders to suppress HDAC6 expression was tested at 100 nM and compared to CRBN degrader 2 in MM1S cells. The resulting cells were analyzed for HDAC6 expression by in-cell ELISA (FIG. 15). […]
(In western blotting, separated proteins are transferred to a membrane and probed.)

The next assay relates to acetylated histone H3. The assay can be described thus: Western blot of acetylated histone H3 in MM1S cells. The assay is classed as cell-based, human.
Text: as §1, §2
as §3, with “Scientific).” for “Scientific). About 10-40 μg of total protein was mixed with 4× Laemmli Loading Dye (250 mM Tris, pH 6.8, 40% glycerol, 5% SDS, 0.005% bromophenol blue, 4% BME) and heated at 95-100° C. for 5 minutes. The heated sample was then subjected to 7.5-12% SDS-PAGE and transferred to PVDF membrane (Bio-Rad,). The membrane was blocked in 5% non-fat milk (Bio-rad) in TBS-T washing buffer (137 mM NaCl, 20 mM Tris, 0.1% Tween) and then incubated with primary antibodies at 4° C. overnight.”

A further assay has as its target T1, HDAC6 (Homo sapiens, UniProt Q9UBN7).
T1 construct: endogenous in cells; host or cells: MM1S (ATCC CRL-2974)
T1 sequence (Q9UBN7 1-1215): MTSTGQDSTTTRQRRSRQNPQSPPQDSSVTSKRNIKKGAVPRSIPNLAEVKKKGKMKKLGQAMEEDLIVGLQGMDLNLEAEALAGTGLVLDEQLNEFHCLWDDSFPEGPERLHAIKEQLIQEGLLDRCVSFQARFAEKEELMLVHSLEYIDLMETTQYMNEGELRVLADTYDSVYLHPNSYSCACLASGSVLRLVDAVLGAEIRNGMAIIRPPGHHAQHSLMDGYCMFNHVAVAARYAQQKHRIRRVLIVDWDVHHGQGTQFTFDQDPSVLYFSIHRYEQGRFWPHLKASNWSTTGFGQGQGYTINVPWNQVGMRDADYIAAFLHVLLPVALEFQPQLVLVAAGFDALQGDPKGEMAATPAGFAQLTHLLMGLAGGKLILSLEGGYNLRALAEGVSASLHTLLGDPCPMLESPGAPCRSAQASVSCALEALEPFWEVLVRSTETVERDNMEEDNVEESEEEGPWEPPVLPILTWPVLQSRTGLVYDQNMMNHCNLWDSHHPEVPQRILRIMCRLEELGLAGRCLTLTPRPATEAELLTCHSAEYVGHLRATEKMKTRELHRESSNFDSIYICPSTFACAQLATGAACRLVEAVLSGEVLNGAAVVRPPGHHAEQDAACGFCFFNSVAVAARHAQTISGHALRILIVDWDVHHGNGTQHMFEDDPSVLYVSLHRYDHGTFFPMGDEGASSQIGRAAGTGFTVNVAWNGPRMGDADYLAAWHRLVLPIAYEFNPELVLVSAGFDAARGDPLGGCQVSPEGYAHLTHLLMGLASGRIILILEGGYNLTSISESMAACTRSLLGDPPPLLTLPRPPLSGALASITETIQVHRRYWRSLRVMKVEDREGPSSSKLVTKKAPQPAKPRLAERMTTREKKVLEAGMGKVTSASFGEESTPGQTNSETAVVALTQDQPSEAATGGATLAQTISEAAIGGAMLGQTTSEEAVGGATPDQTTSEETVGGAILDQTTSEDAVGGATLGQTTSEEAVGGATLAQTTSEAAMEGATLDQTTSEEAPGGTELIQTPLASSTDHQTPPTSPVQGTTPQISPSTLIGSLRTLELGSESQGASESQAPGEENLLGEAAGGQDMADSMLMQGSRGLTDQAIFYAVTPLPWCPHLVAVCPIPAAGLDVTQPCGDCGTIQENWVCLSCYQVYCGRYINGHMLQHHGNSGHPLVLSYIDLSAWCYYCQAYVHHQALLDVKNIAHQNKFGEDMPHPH
Briefly: Immunoblot of HDAC6 degradation in MM.1S cells (second generation degraders). It counts as cell-based. The conditions noted are these: 6 nM. The procedure:
FIG. 6A: Immunoblot showing degradation activity of 18x, 18a, and 18b against HDAC1, HDAC2, HDAC4, and HDAC6 (with β-actin as a control) at serial dilutions of 10 μM, 1 μM, and 100 nM.
FIG. 6B: Immunoblot showing degradation activity of 20a, 20b, 20c, 18c, 18a, and 18b against HDAC4 and HDAC6 (with α-tubulin as a control) at dilutions of 5 nM and 1 nM.
FIG. 6C: Immunoblot showing degradation activity of 18b and 9C against HDAC1, HDAC2, HDAC4, HDAC6, and HDAC8 (with β-actin as a control) at dilutions of 6, 19, 56, 167, and 500 nM.
Some of these HDAC6 degraders could degrade HDAC6 selectively at low nM concentrations in MM.
When the cells reached 90% confluence, they were harvested and plated 1×10^6 cells per well in 6-well plate. After overnight seeding, the cells were treated with a solution of compounds or vehicle in culture medium. The culture medium was removed after treatment and then washed twice with cold PBS. […] Protein concentration was measured by using the Pierce BCA protein assay (Thermo Fisher Scientific). […] The Immunoblot was generated by ChemiDoc MP Imaging Systems (Bio-Rad) and analyzed by Image J software (only available for download online at https://imagej.net/Downloads). […]

The structures appear in SMILES notation.

As for `CCCCN(Cc1ccc(C(=O)NO)cc1)C(=O)Nc1ccc(OCCCCCn2cc(CNc3cccc4c3C(=O)N(C3CCC(=O)NC3=O)C4=O)nn2)cc1` (stereo not shown) [Compound 12d, 4-((1-butyl-3-(4-((5-(4-(((2-(2,6-dioxopiperidin-3-yl)-1,3-dioxoisoindolin-4-yl)amino)methyl)-1H-1,2,3-triazol-1-yl)pentyl)oxy)phenyl)ureido)methyl)-N-hydroxybenzamide], the “change of acetylated tubulin” value in the assay with acetylated tubulin was “increased”. In addition, the “change of acetylated histone H3” value in the assay with acetylated histone H3 is recorded as “No increase”.
For the compound `CCCCN(Cc1ccc(C(=O)NO)cc1)C(=O)Nc1ccccc1` [Next-A, 4-[[butyl[(phenylamino)carbonyl]amino]methyl]-N-hydroxy-benzamide, reference compound], the “change of acetylated tubulin” value in the assay with acetylated tubulin is on record as “didn't”.
In the case of `CCCCN(Cc1ccc(C(=O)NO)cc1)C(=O)Nc1ccc(OCCCn2cc(CNc3ccc4c(c3)C(=O)N(C3CCC(=O)NC3=O)C4=O)nn2)cc1` (stereo not shown) [Compound 12m, 4-((1-butyl-3-(4-(3-(4-(((2-(2,6-dioxopiperidin-3-yl)-1,3-dioxoisoindolin-5-yl)amino)methyl)-1H-1,2,3-triazol-1-yl)propoxy)phenyl)ureido)methyl)-N-hydroxybenzamide], on HDAC6, the HDAC6 depletion result was “completely depleted”.

For the origin of these results see patent US11059815B2, “Synthesis of small molecule histone deacetylase 6 degraders, compounds formed thereby, and pharmaceutical compositions containing them” (Wisconsin Alumni Research Foundation, priority 2018, dated 2021).
